In EP0287128A1, “Antitumor agent” (RESEARCH CORPORATION TECHNOLOGIES, INC., priority 1987, dated 1988):

Key:
[1] = test system: Lewis lung carcinoma; experiment: in vivo
Excerpt: (§1) The tumor tissue was obtained from mice bearing 7 to 10 day old tumors. To obtain the tumors, the animals were sacrificed by cervical dislocation. Tumors were removed aseptically and placed into petri dishes containing ice-cold phosphate buffered saline. Tumors were debrided, necrotic tissue was removed and viable tissue was cut into 2-3 mm fragments. These fragments were loaded into 13-gauge trochars for implantation. Animals were weighed prior to each i.p. injection, which began one day after implantation unless otherwise noted, so that the volume of injection could be adjusted to their individual weight.
(§2) Animals were implanted with Lewis lung carcinoma. Five animals were given FdC (12mg/kg) + H₄U 25mg/kg + BAU 9mg/kg 1/day × 7 days starting on day 1. Comparisons included FUra (25mg/kg) and FUra + BAU (10mg/kg).
(§3) Animals were implanted with Lewis lung carcinoma. Seven animals were given FdC (12mg/kg) + H₄U (25mg/kg) + BAU (30mg/kg). Comparisons included FUra 25 mg/kg and FUra + BAU (30mg/kg). The treatment schedule was as in Example 1A.
(§4) Animals were implanted with Lewis lung carcinoma. The treatment schedule was as described above. A comparison was made with FdU tested at its maximum tolerated dose, 75mg/kg. […] "Day of breakout" indicates the day tumor growth was first noticed in a group of animals in which tumor growth was arrested or in which tumor regression occurred.
(§5) Mice were implanted bilaterally with Lewis lung carcinoma (see Table 3).
(§6) Animals were implanted with Lewis lung carcinoma (see Table 4).

[2] = in vivo; conditions: mouse, in vivo
Excerpt: as §1, §2, §3, §4, §5, §6

[3] = test system: mammary adenocarcinoma-755 in its ascitic form; experiment: Mammary adenocarcinoma-755, ascitic form, injected i.p. into mice; assay type: in vivo, BD2F₁ mice; conditions: for Day of Death / # Cures /6 mice / % Cures / mean day of death / Maximum Weight Loss / T/C: Table 7; for Day of Death: individual animals; for Day of Death / # Cures /6 mice / % Cures / mean day of death / T/C: mg/kg: FdC 12, H4U 25, BAU 10, FUra 26 (with BAU); for Maximum Weight Loss: mg/kg: FdC 12, H4U 25, BAU 10, FUra 26 (with BAU; alone not given); for T/C: not including cures
Excerpt: Forty-eight hours later (day 2) treatment 1/day × 7) was initiated.

[4] = Example 2, BAU 30 mg/kg, H4U 25 mg/kg, administered without a fluorinated pyrimidine analog
[5] = Table 3, one cycle (I) or no cycle mark, mg/kg: FdU 70, FdC 12, H4U 25, BAU 30 where given

Question: With `O=C1NC(O)CCN1[C@@H]1O[C@H](CO)[C@@H](O)[C@H]1O` (some centres unmarked) [H₄U, tetrahydrouridine] as the compound, how does the cures [1, 4] read?
Answer: no cures

Question: What about the “mean day of death” value [1, 4] of the same compound?
Answer: no increase

Question: What about the “tumor inhibition” value [1, 4] of the same compound?
Answer: no significant tumor inhibition

Question: What does the source list for `O=c1[nH]c(=O)n([C@H]2C[C@H](O)[C@@H](CO)O2)cc1F` [FdU, 5-fluorodeoxyuridine]?
Answer: % Tumor Inhibition ([1]; Table 3, day 10, one cycle (I) or no cycle mark, mg/kg: FdU 70, FdC 12, H4U 25, BAU 30 where given): 83%; % Tumor Inhibition ([1]; Table 3, day 14, one cycle (I) or no cycle mark, mg/kg: FdU 70, FdC 12, H4U 25, BAU 30 where given): 74%; % Tumor Inhibition ([1]; Table 3, day 18, one cycle (I) or no cycle mark, mg/kg: FdU 70, FdC 12, H4U 25, BAU 30 where given): 58%; % Tumor Inhibition ([1]; Table 3, day 22, one cycle (I) or no cycle mark, mg/kg: FdU 70, FdC 12, H4U 25, BAU 30 where given): 42%; % Tumor Inhibition ([1]; Table 3, day 26, one cycle (I) or no cycle mark, mg/kg: FdU 70, FdC 12, H4U 25, BAU 30 where given): 31%; % Tumor Inhibition ([1]; Table 3, day 38, one cycle (I) or no cycle mark, mg/kg: FdU 70, FdC 12, H4U 25, BAU 30 where given): 19%; T/C ([1]; Table 3, mean day of death T/C, one cycle (I) or no cycle mark, mg/kg: FdU 70, FdC 12, H4U 25, BAU 30 where given, * not including cures): 1.24; # Cures /6 [1, 5]: 0; # Toxic Deaths /6 [1, 5]: 0; Maximum % Weight Loss [1, 5]: 19%; Mean Day of Death ([1]; Table 3, one cycle (I) or no cycle mark, mg/kg: FdU 70, FdC 12, H4U 25, BAU 30 where given, * not including cures, control 21.1): 26.0; MTD at 7 days [2]: 75 mg/kg

Question: What does the source list for `O=c1[nH]cc(F)c(=O)[nH]1` [FUra, 5-fluorouracil]?
Answer: # of cures/6 ([3]; Table 6, inoculum 10^7 cells, mg/kg: FdC 12, H4U 25, BAU 10, FUra 25, FdU 60): No cures; Day of Death ([3]; inoculum 5 x 10^5 cells): 17,18 21,22; Day of Death ([3]; inoculum 10^5 cells): 17,19 21,33; # Cures /6 mice ([3]; inoculum 5 x 10^5 cells): 1; % Cures ([3]; inoculum 5 x 10^5 cells): 17%; mean day of death ([3]; inoculum 5 x 10^5 cells, control 12.5): 19.2; Maximum Weight Loss ([3]; inoculum 5 x 10^5 cells): 17.4; # Cures /6 mice ([3]; inoculum 10^5 cells): 2; % Cures ([3]; inoculum 10^5 cells): 33%; mean day of death ([3]; inoculum 10^5 cells): 20.0; Maximum Weight Loss ([3]; inoculum 10^5 cells): 17.0; T/C ([3]; inoculum 5 x 10^5 cells): 1.51; T/C ([3]; inoculum 10^5 cells): 1.57; cures ([1]; Examples 1A and 1B together, i.p. 1/day x 7 days from day 1, mg/kg: FdC 12, H4U 25, BAU 9 or 30, FUra 25): No cures

Question: Which results are given for `O=c1[nH]c(=O)n(COCCO)cc1Cc1ccccc1` [BAU, benzacyclouridine]?
Answer: cures [1, 4]: no cures; mean day of death [1, 4]: no increase; tumor inhibition [1, 4]: no significant tumor inhibition
